# Read-outs that look alike come from different tables or passages of the source.
# How the values were obtained:
# Arabidopsis thaliana = experiment: Homologous recombination (GUS reporter, histochemical staining) in plants grown on supplemented medium; assay type: in vivo; settings: for effect on homologous recombination frequency: FIG. 3; for RR (recombination rate): 3-week-old plants; for increase in homologous recombination vs control MS medium: about 3 weeks
# Excerpt: Homologous recombination was detected in plants, in particular Arabidopsis thaliana and tobacco plants, that were transformed with scorable reporter markers, for example, beta-glucuronidase (uidA or GUS). Upon homologous recombination, the marker gene is restored. Homologous recombination events were identified using histochemical staining. […] A recombination substrate generally consists of two non-functional overlapping copies of a GUS gene. Damage to one of the regions of homology may be repaired using the second copy as a template. A simple count of the number of recombination events in a population of plants was used to conduct quantitative analyses of beta-glucuronidase (GUS) activity. The homologous recombination frequency (HRF) was determined by relating the number of blue spots counted which are indicative of […] and then relating that number to the total number of plants scored. The recombination rate (RR) was determined by relating the HRF to the total number of haploid genomes present in the plant.
# The total DNA of the transgenic lines was isolated from whole plants at preferably the full rosette stage using a Nucleon™ PhytoPure™ plant DNA extraction kit from Amersham Life Science. DNA may also be isolated from plants at a different development stage. The yield of total DNA measured in one of micrograms per plant or micrograms per plant organ was compared with the known mean DNA content, 0.16 pg of an A. thaliana cell, to give an approximate number of genomes present in plants (Swoboda et al., Mol. Gen. Genet., 1993, 237(1-2): 33-40). The total DNA was isolated from one of all leaves, roots, and stems of 4 plants per each experimental group for each transgenic line. The average DNA content from these samples was used to estimate the number of genomes present.
# Tissues were prepared from A. thaliana plants that were germinated and grown for a period of 3 weeks on a medium containing 0, 25, 75, and 100 mM of NaCl. The recombination rate (RR) was calculated by scoring the HRF in separate groups of 3-week-old plants and then relating these numbers to the total number of genomes present in the plants. Each of the calculated values represents the mean value for the RR. […] The “Fold Increase” values shown in Table 1 were calculated by relating the data from plants grown on 25, 75 and 100 mM of NaCL to the data from plants grown in the absence of NaCl.
# Plants were germinated and grown on MS medium supplemented with one of 25 mM NaCl, 12.5 mM of Na2SO4, 12.5 mM of MgCl2, and 12.5 mM of MgSO4. Control plants were grown on standard MS medium. […] The data shown is the RR as an average of two independent experiments, each having 200 plants per experimental group.
# The effects of KCl on plant transformation were measured using transgenic plants germinated from Arabidopsis line #11 obtained from Prof. Hohn, Friedrich Miescher Institute, Basel, Switzerland. Plants were germinated and grown on a solid or modified MS basal medium in presence of varying quantities of KCl. In order to establish KCl as the single source of potassium in all the modified media, KNO3, normally present in MS media was omitted. Additionally, potassium dihydrogenphosphate (KH2PO4) was replaced with ammonium dihydrogenphosphate (NH4▪H2PO4).
# Nicotiana tabacum [1] = experiment: Stable T-DNA integration (LUC expression test of regenerated plantlets); assay type: in vivo; settings: for Calli regenerated and transplanted, LUC expression test: LUC negative / Calli regenerated and transplanted, LUC expression test: LUC positive: 20 leaves transformed
# Excerpt: The number of transgenic plants, having incorporated a marker gene, regenerated from tobacco calli in various transformation experiments were counted. All the regenerated plants were screened using a luciferase camera. Spraying the transgenic plants with luciferine, the substrate for luciferase enzyme, allowed the identification of transgenic plants expressing the luciferase.
# The newly appeared plantlets regenerated from the calli of Example 4 showing evidence of root formation, were excised from the calli and transferred to soil.
# Plantlets were sprayed with luciferine, and the total number of luciferase-positive plantlets was scored. This allowed the calculation of the transformation frequency, as the number of plants expressing LUC gene to the number of transformed leaves, shown in FIG. 7.
# Nicotiana tabacum [2] = experiment: Calli regeneration under hygromycin selection after Agrobacterium transformation of leaves; assay type: in vivo; settings: for Calli regenerated and transplanted: died on soil / Calli regenerated and transplanted: total: 20 leaves transformed
# Procedure: Seeds of tobacco cultivar “Big Havana” were surface-sterilized with a solution containing 1% bleach and 0.05% Tween-80, for about 3 minutes and then rinsed twice with sterile distilled water for about 5 minutes. Surface-sterilized seeds were plated in 100 mm Petri dishes on sterile Whatman® filter paper submersed in 4 ml of liquid MS medium containing varying amounts of KCl and the plants were transferred to a growth chamber for germination. Once germinated, the plants were removed from the growth chamber and grown for a period of one week under conditions of 16-hours light, 22° C. and 8-hours dark, 18° C. Three to five one-week-old plants were then removed from the 4-ml liquid medium and were transferred to single sterile glass 250-ml flasks containing 15 ml of sterile liquid MS media supplemented with varying amounts of KCl. Flasks were then installed on shakers at 50-75 rpm. Plants were continuously grown under conditions of 16-hours light, 22° C. and 8-hours dark, 18° C. The growth medium in each flask was replaced weekly with 25 ml of fresh medium. Following a 3-week period, plants were removed from the flasks and 2 to 3 pairs of fully developed fresh leaves about 2-4 cm long were harvested (cut from the plant) for transformation with Agrobacteria.
# Experimental groups of tobacco plants were germinated and grown in a liquid medium culture supplemented with varying amounts of KCl. Control plants for the transformation experiments were grown in a standard MS-medium that was not supplemented with KCl.
# Four weeks post-germination, the tobacco plants were removed from the liquid medium culture. The leaves from the plants were removed, and several parallel incisions were made along the leaves. The leaves were then vacuum infiltrated with an Agrobacterium suspension culture carrying the plasmid with LUC (gene coding for luciferase) and hygromycin (gene coding for the resistance to hygromycin) genes.
# The leaves were vacuum-infiltrated twice for about 5 minutes with the Agrobacterium suspension culture using standard procedures known in the art. Following vacuum-infiltration, the tobacco leaves were dried for about 5 to 10 minutes on sterile Whatman® filter paper to remove substantially all excess Agrobacterium cells. The leaves were then placed on plates containing MS medium, and each of the plates were placed for in a room for a period of 3 day at a temperature of 22° C. and exposed to a daily regime of 16-hours of light and 8-hours of dark.
# Leaves from each of the experimental groups grown on the different media compositions having varying amounts of KCL and the controls were washed with sterile water to remove the Agrobacterium suspension. To remove traces of growth medium, leaves were blotted on sterile filter paper and then submersed in a Petri dish laid out with Whatman® filter paper containing re-suspended Agrobacterium cells. Each submersed leaf surface was incised using a sharp surgical blade in parallel along the side veins. The distance between the two parallel incisions was about 5-7 mm. The primary leaf vein and leaf margins were left intact. Once cutting was complete, leaves remained submersed for a period of about 10 minutes. Leaves were then removed from the Petri dish and were blotted dry and placed upside-down on plates of MS medium, and were incubated in a dark room at 22° C. for a period of 3 days. […]
# After a period of about 3 to 4 weeks, the numbers of regenerated calli were determined. […]
smiles,measurement,setting,value
[Cl-].[Cl-].[Mg+2] [MgCl2],effect on homologous recombination frequency,"Arabidopsis thaliana; MS medium + 12.5 mM MgCl2, 21 days post-germination",significantly positive effects
[Cl-].[Na+] [NaCl],RR (recombination rate),Arabidopsis thaliana; 25 mM NaCl in medium,12.29 ± 0.18 10^−8
same,Fold Increase of RR,Arabidopsis thaliana; 25 mM NaCl vs plants grown in absence of NaCl,1.64
same,RR (recombination rate),Arabidopsis thaliana; 75 mM NaCl in medium,22.52 ± 0.34 10^−8
same,Fold Increase of RR,Arabidopsis thaliana; 75 mM NaCl vs plants grown in absence of NaCl,3
same,RR (recombination rate),Arabidopsis thaliana; 100 mM NaCl in medium,29.57 ± 0.82 10^−8
same,Fold Increase of RR,Arabidopsis thaliana; 100 mM NaCl vs plants grown in absence of NaCl,3.93
same,effect on homologous recombination frequency,"Arabidopsis thaliana; MS medium + 25 mM NaCl, 21 days post-germination",significantly positive effects
same,increase in recombination frequency,Arabidopsis thaliana; exposure to 25-100 mM NaCl,2-4 fold
same,decrease in plant biomass,Arabidopsis; 75 mM NaCl in MS medium,~20%
same,decrease in plant biomass,Arabidopsis; 100 mM NaCl in MS medium,~50%
"[Cl-].[K+] [KCl, potassium chloride]","Integration frequency, LUC positive plants/leaf transformed",Nicotiana tabacum [1]; 47 mM KCl,5.3
same,difference in number of stable transformants vs control media,Nicotiana tabacum [1]; 47 mM KCl,5.9 fold
same,"Calli regenerated and transplanted, LUC expression test: LUC negative",Nicotiana tabacum [1]; 47 mM KCl,32
same,"Calli regenerated and transplanted, LUC expression test: LUC positive",Nicotiana tabacum [1]; 47 mM KCl,106
same,"Integration frequency, LUC positive plants/leaf transformed",Nicotiana tabacum [1]; 94 mM KCl,7.2
same,difference in number of stable transformants vs control media,Nicotiana tabacum [1]; 94 mM KCl,8.0 fold
same,"Calli regenerated and transplanted, LUC expression test: LUC negative",Nicotiana tabacum [1]; 94 mM KCl,41
same,"Calli regenerated and transplanted, LUC expression test: LUC positive",Nicotiana tabacum [1]; 94 mM KCl,144
same,increase in homologous recombination vs control MS medium,Arabidopsis thaliana; modified medium with 18.8 mM KCl,9.3 fold
same,increase in homologous recombination vs control MS medium,Arabidopsis thaliana; modified medium with 47 mM KCl,15.4 fold
same,increase in homologous recombination vs control MS medium,Arabidopsis thaliana; modified medium with 94 mM KCl,19.2 fold
same,effect on plant phenotype / plant biomass,Arabidopsis; 100 mM KCl in MS medium,no decrease in plant biomass was observed
same,Calli regenerated and transplanted: died on soil,Nicotiana tabacum [2]; 47 mM KCl,0
same,Calli regenerated and transplanted: total,Nicotiana tabacum [2]; 47 mM KCl,138
same,Calli regenerated and transplanted: died on soil,Nicotiana tabacum [2]; 94 mM KCl,3
same,Calli regenerated and transplanted: total,Nicotiana tabacum [2]; 94 mM KCl,181
same,increase in number of calli regenerated vs control medium,Nicotiana tabacum [2]; media containing 47 and 94 mM KCl,5.9 fold

# — US20100248372A1, “Composition and Method for Modulating Plant Transformation” (priority 2009, published 2010)
